Tests used:
[1] = target: T1, ER-α in MCF-7 cells (Homo sapiens, UniProt P03372); experiment: Breast cancer cell ER-α in cell western assay (SP1); format: cell-based; parameters: endogenous in cells; host or cells: MCF-7; settings: 4 or 24 hr post compound addition; for Emax: MCF7, SP1 antibody, read-out: ER-α In Cell Western Assay (SP1) Max Response; for DC50: SP1 antibody, read-out: ER-α In Cell Western Assay (SP1) IC50
T1 sequence (P03372 1-595): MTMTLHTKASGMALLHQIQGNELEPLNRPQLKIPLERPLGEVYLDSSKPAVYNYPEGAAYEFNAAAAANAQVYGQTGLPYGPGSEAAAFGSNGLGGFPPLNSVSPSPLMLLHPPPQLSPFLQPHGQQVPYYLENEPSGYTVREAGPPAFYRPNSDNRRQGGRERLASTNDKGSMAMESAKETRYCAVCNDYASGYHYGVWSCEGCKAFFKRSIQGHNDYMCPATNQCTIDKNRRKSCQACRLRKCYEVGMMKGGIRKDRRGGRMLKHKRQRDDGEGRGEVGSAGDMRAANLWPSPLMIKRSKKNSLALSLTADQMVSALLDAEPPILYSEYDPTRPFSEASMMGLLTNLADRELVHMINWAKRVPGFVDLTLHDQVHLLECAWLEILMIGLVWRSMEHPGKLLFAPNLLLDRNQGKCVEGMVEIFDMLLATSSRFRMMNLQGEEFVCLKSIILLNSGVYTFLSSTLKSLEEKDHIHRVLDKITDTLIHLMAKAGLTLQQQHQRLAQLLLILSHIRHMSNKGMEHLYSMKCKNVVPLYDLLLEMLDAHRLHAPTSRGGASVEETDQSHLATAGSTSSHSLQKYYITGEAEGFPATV
Method in brief: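 Read-out is infrared in-cell western: SP1-detected ER intensity at 800 nm divided by DRAQ5 DNA intensity at 700 nm, relative to untreated wells ×100.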

[2] = test system: MCF-7 cells; experiment: Breast cancer cell viability assay (CellTiter-Glo, 5 days); format: cell-based; settings: 5 days' compound exposure; for IC50: Homo sapiens, MCF7, 120 h
Method in brief: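 Eleven-point semilog compound series, final 0.3-0.000003 μM, added to overnight-adhered MCF-7 cells (320/well; RPMI, 10% FBS, 20 mM HEPES) for 5 days. Viability read by CellTiter-Glo luminescence, background from medium without cells subtracted, expressed relative to untreated cells.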

Emax [1] [%] | DC50 [1] [nM] | IC50 [2] [nM] | Structure (SMILES) | MCF7 Viability Assay Max Response [2]
≥ 40 | ≤ 100 | ≤ 100 | CC/C(=C(/c1ccc(/C=C/C(=O)O)cc1)c1ccc2[nH]ncc2c1)c1ccc(Oc2ccccn2)cc1 [Compound 316, (E)-3-(4-((E)-1-(1H-Indazol-5-yl)-2-(4-(pyridin-2-yloxy)phenyl)but-1-en-1-yl)phenyl)acrylic acid] | ++ (++ = a single % value ≧ 40%)
≥ 40 | ≤ 100 | ≤ 100 | CC/C(=C(/c1ccc(/C=C/C(=O)O)cc1)c1ccc2[nH]ncc2c1)c1ccc(Cc2ccccc2)cc1 [Compound 317, (E)-3-(4-((E)-2-(4-Benzylphenyl)-1-(1H-indazol-5-yl)but-1-en-1-yl)phenyl)acrylic acid] | ++ (++ = a single % value ≧ 40%)
≥ 40 | ≤ 100 | > 100 | CC/C(=C(/c1ccc(/C=C/C(=O)O)cc1)c1ccc2[nH]ncc2c1)c1ccc(C)c(Oc2ccccc2)c1 [Compound 318, (E)-3-(4-((E)-1-(1H-Indazol-5-yl)-2-(4-methyl-3-phenoxyphenyl)but-1-en-1-yl)phenyl)acrylic acid] | ++ (++ = a single % value ≧ 40%)
≥ 40 | ≤ 100 | ≤ 100 | CC/C(=C(/c1ccc(/C=C/C(=O)O)cc1)c1ccc2[nH]ncc2c1)c1ccc(Oc2ccccc2)cc1C [Compound 319, (E)-3-(4-((E)-1-(1H-Indazol-5-yl)-2-(2-methyl-4-phenoxyphenyl)but-1-en-1-yl)phenyl)acrylic acid] | ++ (++ = a single % value ≧ 40%)
≥ 40 | ≤ 100 | ≤ 100 | CC/C(=C(/c1ccc(/C=C/C(=O)O)cc1)c1ccc2[nH]ncc2c1)c1ccc(Oc2ccccc2)c(C)c1 [Compound 320, (E)-3-(4-((E)-1-(1H-Indazol-5-yl)-2-(3-methyl-4-phenoxyphenyl)but-1-en-1-yl)phenyl)acrylic acid] | ++ (++ = a single % value ≧ 40%)
≥ 40 | ≤ 100 | ≤ 100 | CC/C(=C(/c1ccc(/C=C/C(=O)O)cc1)c1ccc2[nH]ncc2c1)c1cccc(Oc2cccc(S(C)(=O)=O)c2)c1 [Compound 321, (E)-3-(4-((E)-1-(1H-Indazol-5-yl)-2-(3-(3-(methylsulfonyl)phenoxy)phenyl)but-1-en-1-yl)phenyl)acrylic acid] | ++ (++ = a single % value ≧ 40%)
< 40 | > 100 | > 100 | CC/C(=C(/c1ccc(/C=C/C(=O)O)cc1)c1ccc2[nH]ncc2c1)c1cccc(CC(=O)O)c1 [Compound 327, (E)-3-(4-((E)-2-(3-(Carboxymethyl)phenyl)-1-(1H-indazol-5-yl)but-1-en-1-yl)phenyl)acrylic acid] | + (+ = a single % value < 40%)
< 40 | > 100 | > 100 | CC/C(=C(/c1ccc(/C=C/C(=O)O)cc1)c1ccc2[nH]ncc2c1)c1ccc(CC(=O)O)cc1 [Compound 328, (E)-3-(4-((E)-2-(4-(Carboxymethyl)phenyl)-1-(1H-indazol-5-yl)but-1-en-1-yl)phenyl)acrylic acid] | + (+ = a single % value < 40%)
≥ 40 | ≤ 100 | ≤ 100 | CC/C(=C(/c1ccc(OC[C@H](C)N2CC[C@@H](C)C2)cc1)c1ccc2[nH]ncc2c1)c1ccccc1 [Compound 329, 5-((E)-1-(4-((S)-2-((R)-3-Methylpyrrolidin-1-yl)propoxy)phenyl)-2-phenylbut-1-en-1-yl)-1H-indazole] | ++ (++ = a single % value ≧ 40%)
≥ 40 | ≤ 100 | ≤ 100 | CC/C(=C(/c1ccc(OC[C@H](C)N2CC[C@@H](C)C2)cc1)c1ccc2[nH]ncc2c1)c1ccccc1Cl [Compound 330, 5-((E)-2-(2-Chlorophenyl)-1-(4-((S)-2-((R)-3-methylpyrrolidin-1-yl)propoxy)phenyl)but-1-en-1-yl)-1H-indazole] | ++ (++ = a single % value ≧ 40%)

Reference: patent US9399646B2 (Genentech, Inc., priority 2010, dated 2016)
